Reference: ChEMBL document CHEMBL3808390, “Quinazolinones-Phenylquinoxaline hybrids with unsaturation/saturation linkers as novel anti-proliferative agents” (2016)

How the values were obtained:
Format in all cases: functional
[1] = Antiproliferative activity against human MiaPaCa cells assessed as growth inhibition after 48 hrs by SRB assay; conditions: MIA PaCa-2, 48 h
MDA-MB-231 = test: Antiproliferative activity against human MDA-MB-231 cells assessed as growth inhibition after 48 hrs by SRB assay; conditions: MDA-MB-231, 48 h
HeLa = test: Antiproliferative activity against human HeLa cells assessed as growth inhibition after 48 hrs by SRB assay
[2] = Antiproliferative activity against human IMR32 cells assessed as growth inhibition after 48 hrs by SRB assay; conditions: IMR-32, 48 h

GI50 (MDA-MB-231; read-out: GI50) [nM] | GI50 (MDA-MB-231; read-out: pGI50 (converted)) [nM] | GI50 (HeLa; read-out: GI50) [nM] | GI50 (HeLa; read-out: pGI50 (converted)) [nM] | Compound | GI50 ([1]; read-out: GI50) [nM] | GI50 ([2]; read-out: GI50) [nM] | GI50 ([2]; read-out: pGI50 (converted)) [nM] | GI50 ([1]; read-out: pGI50 (converted)) [nM]
620 | 621 | 32 | 32.1 | Cc1nc2ccccc2c(=O)n1CCCc1ccc(-c2cnc3ccccc3n2)cc1 | 1200 | 220 | 220 | 1200
1360 | 1360 | 38 | 38 | COc1ccc(OC)c(-c2nc3ccccc3c(=O)n2C/C=C/c2ccc(-c3cnc4ccccc4n3)cc2)c1 | 1800 | 280 | 282 | 1800
85 | 85.1 | 73 | 73.1 | COc1cccc2c1C(=O)c1c(O)c3c(c(O)c1C2=O)C[C@@](O)(C(=O)CO)C[C@@H]3O[C@H]1C[C@H](N)[C@H](O)[C@H](C)O1 [DOXORUBICIN] | 97 | 23 | 23 | 97
1250 | 1250 | 120 | 120 | COc1cccc(-c2nc3ccccc3c(=O)n2C/C=C/c2ccc(-c3cnc4ccccc4n3)cc2)c1 | 2000 | 320 | 321 | 2000
570 | 570 | 69500 | 69500 | O=c1c2ccccc2nc(-c2ccc(Cl)cc2)n1C/C=C/c1ccc(-c2cnc3ccccc3n2)cc1 | 6400 | < 10 |  | 6410
< 10 |  | 2500 | 2500 | COc1cc(OC)c(-c2nc3ccccc3c(=O)n2C/C=C/c2ccc(-c3cnc4ccccc4n3)cc2)c(OC)c1 | 2200 | 770 | 771 | 2200

Continued, compound first:

Compound | GI50 (MDA-MB-231; read-out: GI50) [nM] | GI50 (MDA-MB-231; read-out: pGI50 (converted)) [nM] | GI50 (HeLa; read-out: GI50) [nM] | GI50 (HeLa; read-out: pGI50 (converted)) [nM] | GI50 ([1]; read-out: GI50) [nM] | GI50 ([2]; read-out: GI50) [nM] | GI50 ([2]; read-out: pGI50 (converted)) [nM] | GI50 ([1]; read-out: pGI50 (converted)) [nM]
O=c1c2ccccc2nc(-c2ccc(F)cc2)n1C/C=C/c1ccc(-c2cnc3ccccc3n2)cc1 | 1700 | 1700 | 16100 | 16100 | < 10 | 65000 | 65000 | 
COc1ccc(-c2nc3ccccc3c(=O)n2C/C=C/c2ccc(-c3cnc4ccccc4n3)cc2)cc1 | 640 | 641 | 1200 | 1200 | 2100 | 2800 | 2810 | 2100
COc1ccc(-c2nc3ccccc3c(=O)n2C/C=C/c2ccc(-c3cnc4ccccc4n3)cc2)c(OC)c1 | < 10 |  | 31600 | 31600 | 13600 | 6300 | 6310 | 13600
O=c1c2ccccc2nc(-c2ccc([N+](=O)[O-])cc2)n1C/C=C/c1ccc(-c2cnc3ccccc3n2)cc1 | 140 | 140 | 900 | 902 | 6100 | < 10 |  | 6110
CCOc1ccc(-c2nc3ccccc3c(=O)n2C/C=C/c2ccc(-c3cnc4ccccc4n3)cc2)cc1 | > 100000 |  | > 100000 |  | 2200 | 470 | 471 | 2200
O=c1c2ccccc2nc(-c2ccc(Cl)cc2Cl)n1C/C=C/c1ccc(-c2cnc3ccccc3n2)cc1 | 400 | 401 | > 100000 |  | 4400 | 2600 | 2600 | 4410
COc1ccc(-c2nc3ccccc3c(=O)n2C/C=C/c2ccc(-c3cnc4ccccc4n3)cc2)c(F)c1 | < 10 |  | 900 | 902 | 28600 | 1200 | 1200 | 28600
O=c1c2ccccc2nc(-c2ccc(C(F)(F)F)cc2)n1C/C=C/c1ccc(-c2cnc3ccccc3n2)cc1 | 1800 | 1800 | 17700 | 17700 | 10000 | 5300 | 5310 | 10000
O=c1c2ccccc2nc(-c2ccccc2)n1C/C=C/c1ccc(-c2cnc3ccccc3n2)cc1 | 6400 | 6410 | 5100 | 5110 | 2800 | 1010 | 1010 | 2810
Cc1ccc(-c2nc3ccccc3c(=O)n2C/C=C/c2ccc(-c3cnc4ccccc4n3)cc2)cc1 | 1240 | 1240 | 9200 | 9200 | 11400 | 2200 | 2200 | 11400
CC(=O)O[C@H]1C(=O)[C@@]2(C)[C@H]([C@H](OC(=O)c3ccccc3)[C@]3(O)C[C@H](OC(=O)[C@H](O)[C@@H](NC(=O)c4ccccc4)c4ccccc4)C(C)=C1C3(C)C)[C@]1(OC(C)=O)CO[C@@H]1C[C@@H]2O [PACLITAXEL] | 91 | 91.2 | 25 | 25 | 56 | 75 | 75.2 | 56.1
